In patent publication US12195457B2, “Aromatic ring derivative as immunoregulation and preparation method and application of aromatic ring derivative” (SHANGHAI JEMINCARE PHARMACEUTICALS CO., LTD, priority 2018, dated 2025):

How the values were obtained:
S1P1 [1] = target: T1, S1P1 (Homo sapiens, UniProt P21453); assay: S1P1 mediated inhibition of forskolin induced cAMP (PathHunter CHO-K1 EDG1 cells); type: cell-based
T1 construct: host or cells: CHO-K1
Experimental: The cell line used in the test was PathHunter® CHO-K1 EDG1 β-Arrestin Cell Line, supplier: DiscoverX, catalog number: 93-0207C2. The inhibitory effect of compounds on S1P1 mediated forskolin induced cAMP activity was evaluated.
Different concentrations of compounds and a final concentration of 0.6 μM forskolin were added to the test plate wells for each test, and the mixture was centrifuged at 1000 rpm for 10 seconds. A frozen cell was taken, washed twice with HBSS buffer and resuspended. 5000 cells were added to test plates per well, the mixture was shaked for 20 seconds, centrifuged at 1000 rpm for 10 seconds, and incubated at room temperature for 60 minutes. Anti-cAMP-Eu^2+-Cryptate and cAMP-d2 were added. Then the mixture was shaked for 20 seconds, centrifuged at 1000 rpm for 10 seconds, incubated at room temperature for 60 minutes, and the plate was read on an Envision plate reader. The data was analyzed by nonlinear regression to determine the EC50 of the compounds for the inhibition of cAMP induced by forskolin.

S1P1 [2] = target: T1, S1P1; assay: S1P1 mediated β-arrestin reporter activation (PathHunter CHO-K1 EDG1 β-Arrestin Cell Line); type: cell-based; details: 90 minutes incubation at 37° C.
Experimental: The cell line used in the test was PathHunter® CHO-K1 EDG1 β-Arrestin Cell Line, supplier: DiscoverX, catalog number: 93-0207C2. According to the supplier's instructions, the cells were added to the test plate according to 25 μL cell suspension containing 5000 cells per well, and cultured at 37° C. for 20 hours. Compounds of 10 concentrations diluted 4 times were added to the cell culture medium and incubated at 37° C. for 90 minutes. The detection solution was prepared, 12 μL per well, incubated at room temperature for 60 minutes, the plate was read on an Envision plate reader. The data was analyzed by nonlinear regression to determine the EC50 of β-arrestin activity.

S1P1 [3] = target: T1, S1P1; assay: S1P1 receptor internalization (FACS, CHO-K1 EDG1 cells); type: cell-based; details: 2 hours incubation; read-out: S1P1 internalized EC50
Experimental: 1. CHO-K1 DEG1 cells (PathHunter® CHO-K1 EDG1 β-Arrestin Cell Line, supplier: DiscoverX, catalog number: 93-0207C2), and culture medium was removed (F12 medium 1000 mL, 10% FBS, 800 μg/mL G418, 300 μg/mL Hygromycin, 1% Glutamax and 1% Pen/Strep), the cells were washed with 2 mL of DPBS, 5 mL of cell dispersion (Invitrogen-13151014) was added to disperse the cells, the cells were incubated in an incubator at 37° C. for 1-2 minutes. The flask was gently patted to make the cells fall off. 5 mL of growth medium was added, and pipette was gently blown to suspend the cells. Cell counting was performed using Vi-Cell. The mixture was centrifuged at 1000 rpm for 5 minutes at room temperature, the supernatant was gently poured out, and the cells in FACS buffer were resuspended to a concentration of 1.5e6 cells per mL. 2. S1P and compounds were diluted with DMSO in a 384-well plate, and a volume of 500 nL was transferred to a 96 V-well plate (Cat #Axygen-WIPP02280). 3. 50 μL of cells were added to a 96-well plate; 4. The 96-well plate was incubated in a 37° C. 5% CO2 incubator for 2 hours. 5. The cells were centrifuged at room temperature at 1500 rpm for 5 minutes to remove the supernatant. 6. 100 μL of FACS buffer was added to the resuspended cells, centrifuged at 1500 rpm for 5 minutes, and the supernatant was removed. 7. The anti-human S1P1/EDG-1-Alex647 (R&D-FAB1864R) and anti-IgG2B-Alex647 (R&D-IC0041R) antibodies were diluted 200 times with FACS buffer. 8. 50 μL of antibody was added to 96 wells, and the plates were transferred to 4° C. for 30 minutes. 9. The cells were centrifuged at room temperature at 1500 rpm for 5 minutes to remove the supernatant. 10. 100 μL of FACS buffer was added to the resuspended cells. 11. The cells were centrifuged at 4° C. at 1500 rpm for 5 minutes to remove the supernatant. 12. After washing, the cells were resuspended in 50 μL of FACS buffer per well. 13. Cell samples were read using iQue Screener PLUS-VBR.

[4] = In vivo pharmacokinetics in rats, intravenous injection and oral administration; design: species or system Sprague Dawley rats; details: rat; for AUC(0-inf) / clearance / half-life / Cmax: male, Sprague-Dawley, plasma
Experimental: In this experimental embodiment, in vivo pharmacokinetic evaluation was performed in rats by intravenous injection and oral administration.
Experimental methods and conditions: male Sprague Dawley rats were given the test compounds 1 mg/kg (solvent 5% DMSO/15% Solutol/80% Saline) by intravenous injection and 1 mg/kg (solvent 0.5% MC) by oral gavage respectively. 5 min, 15 min, 30 min, 1 hr, 2 hr, 4 hr, 6 hr, 8 hr, 24 hr after administration, blood was collected from submandibular vein, each sample was collected about 0.20 mL, and heparin sodium was used for anti coagulation. After collection, the sample was placed on ice, and the blood was centrifuged to be measured within one hour. Blood drug concentration in plasma was detected by liquid chromatography tandem mass spectrometry (LC/MS/MS), and the pharmacokinetic parameters were calculated by Phoenix WinNonlin software.

[5] = intravenous administration 1 mg/kg

T1 sequence (P21453 whole entry): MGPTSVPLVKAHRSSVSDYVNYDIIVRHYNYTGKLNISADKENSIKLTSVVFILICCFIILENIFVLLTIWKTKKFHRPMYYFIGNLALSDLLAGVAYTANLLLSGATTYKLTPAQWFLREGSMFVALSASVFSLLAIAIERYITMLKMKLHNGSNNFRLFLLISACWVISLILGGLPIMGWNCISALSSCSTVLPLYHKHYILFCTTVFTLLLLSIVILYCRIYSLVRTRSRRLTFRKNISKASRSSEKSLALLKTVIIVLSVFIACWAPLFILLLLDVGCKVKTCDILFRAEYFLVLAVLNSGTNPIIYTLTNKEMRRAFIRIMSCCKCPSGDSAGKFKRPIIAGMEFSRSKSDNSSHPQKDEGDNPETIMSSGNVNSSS

| SMILES | EC50 (S1P1 [1]) | EC50 (S1P1 [2]) | also measured |
| --- | --- | --- | --- |
| O=C(O)CCc1[nH]c2ccc(OCc3ccc(C4CCOCC4)c(C(F)(F)F)c3)cc2c1Cl [Compound 27] | 0.0021 nM | 1.03 nM | – |
| O=C(O)CCc1[nH]c2ccc(OCc3ccc(C4CCCCC4)c(C(F)(F)F)c3)cc2c1Cl [Compound 23] | 0.032 nM | 3.82 nM | – |
| O=C(O)CCc1[nH]c2ccc(OCc3cnc(C4CCCC4)c(C(F)(F)F)c3)cc2c1Cl [Compound 25] | 0.0017 nM | 1.23 nM | – |
| CCc1c(CCC(=O)O)[nH]c2ccc(OCc3ccc(C4CCCC4)c(C(F)(F)F)c3)cc12 [Compound 2] | 0.07 nM | 1.62 nM | EC50 (S1P1 [3]): 0.32 nM |
| O=C(O)CCc1cc2cc(OCc3ccc(C4CCOC4)c(C(F)(F)F)c3)ccc2[nH]1 (centres unmarked) [Compound 31] | 0.18 nM | 2.63 nM | – |
| N#Cc1c(CCC(=O)O)[nH]c2ccc(OCc3ccc(C4CCCC4)c(C(F)(F)F)c3)cc12 [Compound 17] | 0.21 nM | 1.78 nM | – |
| O=C(O)CCc1cc2cc(OCc3ccc(C4CCCC4)c(C(F)(F)F)c3)ccc2[nH]1 [Compound 1] | < 0.05 nM | 0.95 nM | – |
| Cc1c(CCC(=O)O)[nH]c2ccc(OCc3ccc(C4CCOCC4)c(C(F)(F)F)c3)cc12 [Compound 35] | 0.34 nM | 0.88 nM | – |
| O=C(O)CCc1cc2cc(OCc3cnc(C4CCCC4)c(C(F)(F)F)c3)ccc2[nH]1 [Compound 29] | – | 2.15 nM | – |
| O=C(O)CCc1[nH]c2ccc(OCc3ccc(C4CCOC4)c(C(F)(F)F)c3)cc2c1Cl (centres unmarked) [Compound 26] | 0.0041 nM | 1.11 nM | – |
| O=C(O)CCc1cc2cc(OCc3ccc(OC4CCCC4)c(C(F)(F)F)c3)ccc2[nH]1 [Compound 37] | 0.2 nM | 1.72 nM | – |
| Cc1c(CCC(=O)O)[nH]c2ccc(OCc3ccc(C4CCOC4)c(C(F)(F)F)c3)cc12 (centres unmarked) [Compound 32] | 0.56 nM | 1.47 nM | – |
| O=C(O)C[C@H]1CCc2c1[nH]c1ccc(OCc3ccc(C4CCCC4)c(C(F)(F)F)c3)cc21 [APD334, reference compound] | 2.07 nM | – | AUC(0-inf) [4, 5]: 9.41 µg·h/mL; clearance [4, 5]: 0.11 L/h/kg; half-life [4, 5]: 5.2 h; AUC(0-inf) ([4]; oral administration 1 mg/kg): 4.44 µg·h/mL; Cmax ([4]; oral administration 1 mg/kg): 0.341 µg/mL; half-life ([4]; oral administration 1 mg/kg): 5.5 h; F ([4]; oral administration 1 mg/kg): 46.3%; EC50 (S1P1 [3]): 6.26 nM |
| O=C(O)CCc1[nH]c2ccc(OCc3ccc(OC4CCCC4)c(C(F)(F)F)c3)cc2c1F [Compound 39] | 0.027 nM | 0.76 nM | – |
| O=C(O)CCc1[nH]c2ccc(OCc3ccc(C4=CCCC4)c(C(F)(F)F)c3)cc2c1Cl [Compound 21] | 0.035 nM | 2.26 nM | – |
| O=C(O)CCc1[nH]c2ccc(OCc3ccc(OC4CCCC4)c(C(F)(F)F)c3)cc2c1Cl [Compound 24] | 0.0072 nM | 1.73 nM | – |
| O=C(O)CCc1[nH]c2ccc(OCc3cnc(C4CCCC4)c(C(F)(F)F)c3)cc2c1F [Compound 30] | 0.15 nM | 0.62 nM | – |
| O=C(O)CCc1cc2cc(OCc3ccc(C4CCOCC4)c(C(F)(F)F)c3)ccc2[nH]1 [Compound 34] | – | 5.35 nM | – |
| Cc1c(CCC(=O)O)[nH]c2ccc(OCc3ccc(OC4CCCC4)c(C(F)(F)F)c3)cc12 [Compound 38] | – | 1.11 nM | – |
| O=C(O)CCc1[nH]c2ccc(OCc3ccc(C4CCOCC4)c(C(F)(F)F)c3)cc2c1F [Compound 36] | 0.3 nM | 0.85 nM | – |
| O=C(O)CCn1ccc2cc(OCc3ccc(C4CCCC4)c(C(F)(F)F)c3)ccc21 [Compound 12] | 0.65 nM | 1.96 nM | – |
| O=C(O)CCc1[nH]c2ccc(OCc3ccc(C4CCC4)c(C(F)(F)F)c3)cc2c1Cl [Compound 22] | 0.11 nM | 1.65 nM | – |
| O=C(O)CCc1[nH]c2ccc(OCc3ccc(C4CCOC4)c(C(F)(F)F)c3)cc2c1F (centres unmarked) [Compound 33] | 0.057 nM | 1.1 nM | – |
| O=C(O)CCn1cnc2cc(OCc3ccc(C4CCCC4)c(C(F)(F)F)c3)ccc21 [Compound 4] | 0.5 nM | – | – |
| Cc1c(CCC(=O)O)[nH]c2ccc(OCc3cnc(C4CCCC4)c(C(F)(F)F)c3)cc12 [Compound 40] | – | 1.18 nM | – |
| O=C(O)CCc1nc2cc(OCc3ccc(C4CCCC4)c(C(F)(F)F)c3)ccc2[nH]1 [Compound 6] | 0.16 nM | – | – |
| O=C(O)CCc1cc2cc(OCc3ccc(N4CCCC4)c(C(F)(F)F)c3)ccc2[nH]1 [Compound 28] | – | 2.08 nM | – |
| O=C(O)CCc1[nH]c2ccc(OCc3ccc(C4CCCC4)c(C(F)(F)F)c3)cc2c1F [Compound 14] | 0.07 nM | 1.86 nM | AUC(0-inf) [4, 5]: 10.8 µg·h/mL; clearance [4, 5]: 0.093 L/h/kg; half-life [4, 5]: 4.1 h; AUC(0-inf) ([4]; oral administration 1 mg/kg): 2.34 µg·h/mL; Cmax ([4]; oral administration 1 mg/kg): 0.258 µg/mL; half-life ([4]; oral administration 1 mg/kg): 4 h; F ([4]; oral administration 1 mg/kg): 21.3%; EC50 (S1P1 [3]): 0.14 nM |
| O=C(O)CCc1cc2cc(OCc3ccc(C4CCCC4)c(C(F)(F)F)c3)c(F)cc2[nH]1 [Compound 18] | 0.08 nM | 1.1 nM | EC50 (S1P1 [3]): 0.69 nM |
